Measured values reported in Sander's compilation of Henry's law constants (doi:10.1021/es00033a018).

experiment: Henry solubility constant Hcp at 298.15 K (mol/(m3 Pa)); conditions: reference: Wright et al. (1992)

First: ClC(Cl)C(Cl)Cl [1,1,2,2-tetrachloroethane]
Second: ClCC(Cl)Cl [1,1,2-trichloroethane]
The “Henry solubility constant Hcp” value of the first is higher: 0.022 for the first, 0.011 for the second.

First: ClCC(Cl)(Cl)Cl [1,1,1,2-tetrachloroethane]
Second: ClC(Cl)(Cl)Cl [tetrachloromethane]
The “Henry solubility constant Hcp” value of the first is higher: 0.004 for the first, 0.00029 for the second.

Compared with `CC(Cl)CCl` (stereo unspecified) [1,2-dichloropropane], `ClCCl` [dichloromethane] is higher in “Henry solubility constant Hcp” value: 0.0036 for the first, 0.0039 for the second.

Going from `BrC(Br)Br` [tribromomethane] to `BrCBr` [dibromomethane], the “Henry solubility constant Hcp” value falls from 0.024 to 0.011.

First: ClC=C(Cl)Cl [trichloroethene]
Second: ClC=CCCl [1,3-dichloropropene]
The “Henry solubility constant Hcp” value of the first is lower: 0.0011 for the first, 0.0064 for the second.

With `CC(Cl)(Cl)Cl` [1,1,1-trichloroethane] the “Henry solubility constant Hcp” value was 0.0006.
